Reference: USRE35281E, “Tetrazole derivatives and aldose reductase inhibition therewith” (Wakamoto Pharmaceutical Co., Ltd., priority 1989, dated 1996)

Columns and labels:
[1] = molecular target: T1, aldose reductase (Rattus norvegicus, UniProt P07943); assay: Aldose Reductase Inhibition Test (Experiment 1); assay type: biochemical, rat (male SD rat crystalline lens); conditions: DL-glycerine aldehyde 10 mM, pH 6.2, 30° C., 5 min; for inhibition at 50 µM: final concentration 5×10^-5 M (values without asterisk); for inhibition at 1 µM: *Concentration of 10^-6 M
T1 construct: their crystalline lenses were immediately removed and stored at -80° C; The lenses were homogenized; from tissue; host or cells: crystalline lens of six-week-old male SD rats (homogenate supernatant, dialysed)
Experimental: (§1) Six-week-old male SD rats were killed under ether anesthesia and their crystalline lenses were immediately removed and stored at -80° C. The lenses were homogenized in 3 volumes of 135 mM sodium potassium phosphate buffer (pH: 7.0) and centrifuged at a rate of 30,000 rpm for 30 min. The supernatant was dialyzed overnight against 0.05M sodium chloride, to produce an aldose reductase solution. All operations were conducted at 4° C. The enzyme solution was stored at -80° C.
(§2) The activity of aldose reductase was determined according to a slight modification of the method of J. H. Kinoshita et al [J. Biol. Chem., 240, 877 (1965)]. Namely, 0.1 ml of DL-glycerine aldehyde (final concentration: 10 mM) was added to 0.9 ml of 100 mM sodium potassium phosphate buffer (pH 6.2) which contained lithium sulfate (final concentration: 400 mM), reduced nicotinamide adenine dinucleotide phosphate (final concentration: 0.15 mM), the enzyme solution, and the compound to be tested (final concentration: 5×10^-5 M or 10^-6 M), and then the reaction was conducted at 30° C. for 5 min. […] The maximum reducing rate of the absorbance (U) during the reaction was determined. By substracting, from this value, the maximum reducing rate (Uo) at 340 nm of the reaction solution before the addition of the substrate (DL-glycerine aldehyde), the reaction rate (V) (V=U-Uo) was calculated as a true reaction rate in the presence of the compound to be tested.
(§3) The same procedure was repeated except for the absence of the compound to be tested. A true reaction rate (Vo) in case the enzyme was not inhibited was calculated (Vo =U'-Uo '). The inhibitory activity of aldose reductase was determined by the following formula. [formula]

[2] = molecular target: T1, aldose reductase; assay: Aldose reductase inhibition, IC50 determination (Experiment 2); assay type: biochemical, rat (male SD rat crystalline lens); conditions: calculated from inhibitions at three final concentrations; DL-glycerine aldehyde 10 mM, pH 6.2, 30° C.
Experimental: as §1, with “The lenses were homogenized in 3 volumes of 135 mM sodium potassium phosphate buffer (pH: 7.0) and centrifuged at a rate of 30,000 rpm for 30 min.” left out
as §2, with “Namely,” for “The activity of aldose reductase was determined according to a slight modification of the method of J. H. Kinoshita et al [J. Biol. Chem., 240, 877 (1965)]. Namely,”
as §3
In the same manner as Experiment 1, the inhibitions at final concentrations of 10^-6, 10^-7 and […] for the compound to be tested were calculated.

Compound | inhibition at 50 µM [1] [%] | inhibition at 1 µM [1] [%] | IC50 [2] [nM]
COC(=O)Cn1nnnc1-c1cccc(C)c1 [Compound 1-6, Methyl 5-(3-methylphenyl)-1-tetrazoleacetate] | 44 | – | –
COC(=O)Cn1nnnc1-c1ccc(OC)cc1 [Compound 1-8, Methyl 5-(4-methoxyphenyl)-1-tetrazoleacetate] | 43 | – | –
COC(=O)Cn1nnnc1-c1ccc(Cl)cc1 [Compound 2-1, Methyl 5-(4-chlorophenyl)-1-tetrazoleacetate] | 31 | – | –
COC(=O)Cn1nnnc1-c1cccc([N+](=O)[O-])c1 [Compound 2-4, Methyl 5-(3-nitrophenyl)-1-tetrazoleacetate] | 30 | – | –
COC(=O)Cn1nnnc1-c1ccc([N+](=O)[O-])cc1 [Compound 2-5, Methyl 5-(4-nitrophenyl)-1-tetrazoleacetate] | 44 | – | –
COC(=O)Cn1nnnc1-c1ccc(Cl)c([N+](=O)[O-])c1 [Compound 2-6, Methyl 5-(3-nitro-4-chlorophenyl)-1-tetrazoleacetate] | 42 | – | –
CCCCOC(=O)C(=O)Nc1cccc(-c2nnnn2CC(=O)OCC)c1 [Compound 2-8, Butyl 3'-(1-ethoxycarbonylmethyl-tetrazol-5-yl)oxanilate] | 52 | – | –
COC(=O)Cn1nnnc1-c1ccc(-c2nnnn2CC(=O)OC)cc1 [Compound 2-10, 1,4-Bis(1-methoxycarbonylmethyl-tetrazol-5-yl)benzene] | 36 | – | –
O=C(O)Cn1nnnc1-c1ccc(Cl)c([N+](=O)[O-])c1 [Compound 3-2, 5-(3-Nitro-4-chlorophenyl)-1-tetrazoleacetic acid] | – | 84 | –
Cc1ccc(-c2nnnn2CC(=O)O)cc1[N+](=O)[O-] [Compound 3-11, 5-(3-Nitro-4-methylphenyl)-1-tetrazoleacetic acid] | – | 92 | 42
O=C(O)Cn1nnnc1-c1ccc(-c2nnnn2CC(=O)O)cc1 [Compound 3-13, 1,4-Bis(1-carboxymethyl-tetrazol-5-yl)benzene] | 94 | – | 27
CCCCOc1ccc(-c2nnnn2CC(=O)O)cc1 [Compound 3-27, 5-(4-n-Butoxyphenyl)-1-tetrazoleacetic acid] | – | 96 | 18
CCCCCCCOc1ccc(-c2nnnn2CC(=O)O)cc1 [Compound 3-32, 5-(4-n-Heptoxyphenyl)-1-tetrazoleacetic acid] | – | – | 29
COc1ccc(-c2nnnn2CC(=O)O)cc1OC [Compound 3-34, 5-(3,4-Dimethoxyphenyl)-1-tetrazoleacetic acid] | – | – | 63
CCCCOc1ccc(-c2nnnn2CC(=O)O)cc1OCCCC [Compound 3-35, 5-(3,4-Di-n-butoxyphenyl)-1-tetrazoleacetic acid] | – | – | 33
O=C(O)Cn1nnnc1-c1ccc(C(=O)N2CCCCC2)cc1 [Compound 3-38, 5-(4-Piperidinocarbonylphenyl)-1-tetrazoleacetic acid] | – | – | 54
CCCCOC(=O)C(=O)Nc1cccc(-c2nnn[nH]2)c1 [Compound 4-1, 5-(3-n-Butyloxalylaminophenyl)tetrazole] | 58 | – | –
CCCCOC(=O)C(=O)Nc1ccccc1-c1nnn[nH]1 [Compound 4-2, 5-(2-n-Butyloxalylaminophenyl)tetrazole] | 69 | – | –
CCOC(=O)C(=O)Nc1cc(-c2nnn[nH]2)cc(NC(=O)C(=O)OCC)c1Cl [Compound 4-3, 5-(4-Chloro-3,5-diethyloxalylaminophenyl)tetrazole] | 95 | – | –
CCCCOC(=O)C(=O)Nc1cc(-c2nnn[nH]2)cc(NC(=O)C(=O)OCCCC)c1Cl [Compound 4-4, 5-(4-Chloro-3,5-di-n-butyloxalylaminophenyl)tetrazole] | 92 | – | –
O=C(O)C(=O)Nc1cccc(-c2nnn[nH]2)c1 [Compound 5-1, 3-(1H-Tetrazol-5-yl)oxanilic acid] | 63 | – | –

The remaining lines, values ahead:

inhibition at 50 µM [1] [%] | inhibition at 1 µM [1] [%] | IC50 [2] [nM] | Compound
92 | – | – | COC(=O)Cn1nnnc1-c1ccccc1 [Compound 1-1, methyl 5-phenyl-1-tetrazoleacetate]
63 | – | – | CCCCOC(=O)Cn1nnnc1-c1ccccc1 [Compound 1-4, n-Butyl 5-phenyl-1-tetrazoleacetate]
– | 94 | 42 | O=C(O)Cn1nnnc1-c1ccc(F)cc1 [Compound 3-3, 5-(4-Fluorophenyl)-1-tetrazoleacetic acid]
– | 96 | 33 | Cc1cccc(-c2nnnn2CC(=O)O)c1 [Compound 3-5, 5-(3-Methylphenyl)-1-tetrazoleacetic acid]
– | 95 | 48 | COc1ccc(-c2nnnn2CC(=O)O)cc1 [Compound 3-7, 5-(4-Methoxyphenyl)-1-tetrazoleacetic acid]
– | 85 | – | O=C(O)Cn1nnnc1-c1ccc(Cl)cc1 [Compound 3-10, 5-(4-Chlorophenyl)-1-tetrazoleacetic acid]
– | – | 17 | CCCCc1ccc(-c2nnnn2CC(=O)O)cc1 [Compound 3-14, 5-(4-n-Butylphenyl)-1-tetrazoleacetic acid]
80 | – | – | O=C(O)CCn1nnnc1-c1ccccc1 [Compound 3-15, 3-(5-Phenyltetrazol-1-yl)propionic acid]
79 | – | – | O=C(O)CCCn1nnnc1-c1ccccc1 [Compound 3-16, 4-(5-Phenyltetrazol-1-yl)buatyric acid]
68 | – | – | O=C(O)CCCCn1nnnc1-c1ccccc1 [Compound 3-17, 5-(5-Phenyltetrazol-1-yl)valeric acid]
91 | – | – | CC(C(=O)O)n1nnnc1-c1ccccc1 (stereo not drawn) [Compound 3-18, 2-(5-Phenyltetrazol-1-yl)propionic acid]
– | 95 | 22 | O=C(O)Cn1nnnc1-c1ccc(-c2ccccc2)cc1 [Compound 3-23, 5-(4-Biphenylyl)-1-tetrazoleacetic acid]
– | 96 | 17 | CCCCCCCc1ccc(-c2nnnn2CC(=O)O)cc1 [Compound 3-24, 5-(4-n-Heptylphenyl)-1-tetrazoleacetic acid]
– | 94 | 28 | O=C(O)Cn1nnnc1-c1ccc(Oc2ccccc2)cc1 [Compound 3-25, 5-(4-Phenoxyphenyl)-1-tetrazoteacetic acid]
– | 94 | 27 | CC(C)(C)c1ccc(-c2nnnn2CC(=O)O)cc1 [Compound 3-26, 5-(4-t-Butylphenyl)-1-tetrazoleacetic acid]
– | – | 43 | O=C(O)Cn1nnnc1-c1ccc(O)cc1 [Compound 3-31, 5-(4-Hydroxyphenyl)-1-tetrazoleacetic acid]
– | – | 28 | COc1cccc(-c2nnnn2CC(=O)O)c1 [Compound 3-33, 5-(3-Methoxyphenyl)-1-tetrazoteacetic acid]
– | – | 82 | O=C(O)Cn1nnnc1-c1ccc(C(=O)O)cc1 [Compound 3-37, 5-(4-Carboxyphenyl)-1-tetrazoleacetic acid]
– | – | 73 | CCCN(CCC)C(=O)c1ccc(-c2nnnn2CC(=O)O)cc1 [Compound 3-39, 5-(4-Di-n-propylaminocarbonylphenyl)-1-tetrazoleacetic acid]
– | – | 41 | Nc1ccc(-c2nnnn2CC(=O)O)cc1 [Compound 3-40, 5-(4-Aminophenyl)-1-tetrazoleacetic acid]
– | – | 20 | O=C(O)Cn1nnnc1-c1ccc(CBr)cc1 [Compound 3-41, 5-(4-Bromomethylphenyl)-1-tetrazoleacetic acid]
– | – | 37 | CSc1ccc(-c2nnnn2CC(=O)O)cc1 [Compound 3-42, 5-(4-Methylthiophenyl)-1-tetrazoleacetic acid]
– | – | 78 | CCCCNS(=O)(=O)c1ccc(-c2nnnn2CC(=O)O)cc1 [Compound 3-45, 5-(4-n-Butylaminosulfonylphenyl)-1-tetrazoleacetic acid]
